Common to all, as to type: binding
In assay [1] the target is Recombinant human integrin α8β1 (Homo sapiens (Human), UniProt P05556+P53708). In words: Solid Phase Receptor Assay (SPRA) for α8β1 function. The settings on record: mouse nephronectin-coated plate. As to the method: 7. Solid Phase Receptor Assay (SPRA) for α8β1 Function
Recombinant mouse nephronectin protein (R&D Systems, Inc, 4298-NP) diluted to 1 μg/mL in TBS+ buffer (25 mM Tris pH 7.4, 137 mM NaCl, 2.7 mM KCl, 1 mM CaCl2, 1 mM MgCl2, 1 mM MnCl2) was added to wells (50 μl/well) of a 96-well half-well transparent microtiter plate (Greiner 675061), and incubated overnight at 4° C. Wells were washed 3 times with 150 μL TBS+ and 150 μL of blocking buffer (TBS+ with 1% bovine serum albumin, Sigma A7906) were added. The plate was incubated for 1 hr at 37° C. and then washed 3× with TBS+. Recombinant human integrin α8β1 (R&D Systems, pre-launch) was diluted to 0.25 μg/mL in TBS+/0.1% bovine serum albumin. Compounds were diluted 1:100 into the integrin solution and 50 μL added to empty wells of the washed nephronectin-coated plate according to a standard template with each sample repeated in triplicate. After incubation for two hours at room temperature, the plate was washed 3× with 150 μL of TBS+. To each well, 50 μL of biotinylated anti-β antibody (R&D Systems, BAF1778) at 0.5 μg/mL in TBS+/0.1% BSA were added and the plate was covered and incubated for 1 hr at room temperature. After washing the plate 3× with 150 μL of TBS+ buffer, 50 μL of streptavidin-conjugated horseradish peroxidase (R&D Systems, DY998) diluted in TBS+ blocking buffer were added to the wells and the plate incubated for 20 min at room temperature. The plate was washed 3× with TBS+ followed by 50 μL of TMB substrate (Sigma T4444) added to each well and the plate incubated for 20 min at room temperature. Plates were read by colorimetric detection at 650 nm wavelength using a Tecan Safire II plate reader. Concentration-response curves were constructed by non-linear regression (best fit) analysis, and IC50 values were calculated for each compound.

Assay [2] concerns the target Recombinant human integrin αvβ6 (Homo sapiens (Human), UniProt P06756+P18564). In words: Solid Phase Receptor Assay (SPRA) for αvβ6 function. The following applies: LAP-coated plate. As to the method:
5. Solid Phase Receptor Assay (SPRA) for αvβ6 Function
Recombinant human LAP (R&D Systems, 246-LP) diluted to 0.25 μg/mL in TBS+ buffer (25 mM Tris pH 7.4, 137 mM NaCl, 2.7 mM KCl, 1 mM CaCl2, 1 mM MgCl2, 1 mM MnCl2) was added to wells (50 μL/well) of a 96-well half-well transparent microtiter plate (Greiner 675061) and incubated overnight at 4° C. Wells were washed 3 times with 150 μL TBS+, and 150 μL of blocking buffer (TBS+ with 1% bovine serum albumin, Sigma A7906) were added. The plate was incubated for 1 hr at 37° C., and then washed 3× with TBS+ buffer. Recombinant human integrin αvβ6 (R&D Systems, 3817-AV) was diluted to 0.1 μg/mL in TBS+/0.1% bovine serum albumin. Compounds were diluted 1:100 into the integrin solution and then 50 μL added to empty wells of the washed LAP-coated plate according to a standard template with each sample repeated in triplicate. After incubation for two hours at room temperature, the plate was washed 3× with 150 μL of TBS+ buffer. To each well, 50 μL of biotinylated anti-αv antibody (R&D Systems, BAF1219) at 0.5 μg/mL in TBS+/0.1% BSA were added and the plate was covered and incubated for 1 hr at room temperature. After washing the plate 3× with 150 μL of TBS+ buffer, 50 μL of streptavidin-conjugated horseradish peroxidase (R&D Systems, DY998) diluted in TBS+ blocking buffer were added to the wells and the plate incubated for 20 min at room temperature. The plate was washed 3× with TBS+ buffer followed by 50 μL of TMB substrate (Sigma T4444) added to each well and the plate incubated for 20 min at room temperature. Plates were read by colorimetric detection at 650 nm wavelength using a Tecan Safire II plate reader. Concentration-response curves were constructed by non-linear regression (best fit) analysis, and IC50 values were calculated for each compound.

In assay [3] the target is Recombinant human integrin αvβ3 (Homo sapiens (Human), UniProt P05106+P06756). In words: Solid Phase Receptor Assay (SPRA) for αvβ3 function. The settings on record: vitronectin-coated plate. As to the method:
3. Solid Phase Receptor Assay (SPRA) for αvβ3 Function
Recombinant human vitronectin (R& D Systems, 2308-VN) diluted to 1 μg/mL in TBS+ buffer (25 mM Tris pH 7.4, 137 mM NaCl, 2.7 mM KCl, 1 mM CaCl2, 1 mM MgCl2, 1 mM MnCl2) was added to wells (50 μL/well) of a 96-well half-well transparent microtiter plate (Greiner 675061) and incubated overnight at 4° C. Wells were washed 3 times with 150 μL TBS+ and 150 μL of blocking buffer (TBS+ with 1% bovine serum albumin, Sigma A7906) were added. The plate was incubated for 1 hr at 37° C. and then washed 3× with TBS+ buffer. Recombinant human integrin αvβ3 (R&D Systems, 3050-AV) was diluted to 1 μg/mL in TBS+/0.1% bovine serum albumin. Compounds were diluted 1:100 into the integrin solution and then 50 μL added to empty wells of the washed vitronectin-coated plate according to a standard template with each sample repeated in triplicate. After incubation for two hours at room temperature, the plate was washed 3× with 150 μL of TBS+ buffer. To each well, 50 μL of biotinylated anti-αv antibody (R&D Systems, BAF1219) at 0.5 μg/mL in TBS+/0.1% BSA were added and the plate covered and incubated for 1 hr at room temperature. After washing the plate 3× with 150 μL of TBS+ buffer, 50 μL of streptavidin-conjugated horseradish peroxidase (R&D Systems, DY998) diluted in TBS+ blocking buffer were added to the wells and the plate incubated for 20 min at room temperature. The plate was washed 3× with TBS+ buffer followed by 50 μL of TMB substrate (Sigma, T4444) added to each well and the plate was incubated for 20 min at room temperature. Plates were read by colorimetric detection at 650 nm wavelength using a Tecan Safire II plate reader. Concentration-response curves were constructed by non-linear regression (best fit) analysis, and IC50 values were calculated for each compound.

Molecules are shown by their SMILES.

Chain of Recombinant human integrin αvβ6 (P06756 31-992): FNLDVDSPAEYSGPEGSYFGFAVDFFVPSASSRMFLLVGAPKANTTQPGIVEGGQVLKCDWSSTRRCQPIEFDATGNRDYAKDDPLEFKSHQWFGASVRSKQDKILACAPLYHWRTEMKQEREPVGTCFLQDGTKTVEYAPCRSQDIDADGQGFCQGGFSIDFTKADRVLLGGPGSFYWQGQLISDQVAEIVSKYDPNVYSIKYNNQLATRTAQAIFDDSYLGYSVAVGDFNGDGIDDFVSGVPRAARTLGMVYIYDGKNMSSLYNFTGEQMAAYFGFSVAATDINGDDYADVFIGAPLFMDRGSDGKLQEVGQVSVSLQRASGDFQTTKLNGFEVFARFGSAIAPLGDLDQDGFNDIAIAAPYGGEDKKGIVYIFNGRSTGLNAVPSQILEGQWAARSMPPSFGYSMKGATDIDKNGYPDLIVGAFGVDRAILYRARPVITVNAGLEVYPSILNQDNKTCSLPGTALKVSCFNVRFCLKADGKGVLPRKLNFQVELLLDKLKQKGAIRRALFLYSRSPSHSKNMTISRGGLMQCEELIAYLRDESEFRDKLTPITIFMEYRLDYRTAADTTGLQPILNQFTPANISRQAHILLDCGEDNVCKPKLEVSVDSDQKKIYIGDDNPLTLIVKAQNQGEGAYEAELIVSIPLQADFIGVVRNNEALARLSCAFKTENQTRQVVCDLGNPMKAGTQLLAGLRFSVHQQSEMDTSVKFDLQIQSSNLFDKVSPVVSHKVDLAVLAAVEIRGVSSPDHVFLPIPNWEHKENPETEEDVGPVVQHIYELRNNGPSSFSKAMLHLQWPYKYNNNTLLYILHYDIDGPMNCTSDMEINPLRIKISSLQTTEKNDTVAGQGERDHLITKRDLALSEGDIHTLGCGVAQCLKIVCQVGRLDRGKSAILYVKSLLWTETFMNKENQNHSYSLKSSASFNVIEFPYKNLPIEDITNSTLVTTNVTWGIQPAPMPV
Chain of Recombinant human integrin αvβ6 (P18564 22-707): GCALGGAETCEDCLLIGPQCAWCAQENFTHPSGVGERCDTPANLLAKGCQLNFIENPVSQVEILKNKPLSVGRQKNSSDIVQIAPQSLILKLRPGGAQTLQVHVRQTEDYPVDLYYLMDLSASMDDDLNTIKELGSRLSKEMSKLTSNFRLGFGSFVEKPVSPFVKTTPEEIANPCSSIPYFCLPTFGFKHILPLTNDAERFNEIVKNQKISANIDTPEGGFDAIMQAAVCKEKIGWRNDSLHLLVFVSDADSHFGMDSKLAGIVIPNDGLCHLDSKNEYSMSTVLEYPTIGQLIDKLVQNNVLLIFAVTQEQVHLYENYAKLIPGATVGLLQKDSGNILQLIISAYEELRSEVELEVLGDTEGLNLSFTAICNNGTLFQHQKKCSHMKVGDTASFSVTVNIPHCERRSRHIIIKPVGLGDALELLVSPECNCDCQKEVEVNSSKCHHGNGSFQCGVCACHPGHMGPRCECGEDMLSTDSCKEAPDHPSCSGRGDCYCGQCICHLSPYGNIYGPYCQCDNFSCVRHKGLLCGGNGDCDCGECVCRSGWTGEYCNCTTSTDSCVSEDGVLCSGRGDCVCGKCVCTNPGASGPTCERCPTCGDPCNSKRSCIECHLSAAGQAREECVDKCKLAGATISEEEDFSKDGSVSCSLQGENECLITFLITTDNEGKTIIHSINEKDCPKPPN
Chain of Recombinant human integrin αvβ3 (P06756 31-992): as the sequence (P06756 31-992) above
Chain of Recombinant human integrin αvβ3 (P05106 27-718): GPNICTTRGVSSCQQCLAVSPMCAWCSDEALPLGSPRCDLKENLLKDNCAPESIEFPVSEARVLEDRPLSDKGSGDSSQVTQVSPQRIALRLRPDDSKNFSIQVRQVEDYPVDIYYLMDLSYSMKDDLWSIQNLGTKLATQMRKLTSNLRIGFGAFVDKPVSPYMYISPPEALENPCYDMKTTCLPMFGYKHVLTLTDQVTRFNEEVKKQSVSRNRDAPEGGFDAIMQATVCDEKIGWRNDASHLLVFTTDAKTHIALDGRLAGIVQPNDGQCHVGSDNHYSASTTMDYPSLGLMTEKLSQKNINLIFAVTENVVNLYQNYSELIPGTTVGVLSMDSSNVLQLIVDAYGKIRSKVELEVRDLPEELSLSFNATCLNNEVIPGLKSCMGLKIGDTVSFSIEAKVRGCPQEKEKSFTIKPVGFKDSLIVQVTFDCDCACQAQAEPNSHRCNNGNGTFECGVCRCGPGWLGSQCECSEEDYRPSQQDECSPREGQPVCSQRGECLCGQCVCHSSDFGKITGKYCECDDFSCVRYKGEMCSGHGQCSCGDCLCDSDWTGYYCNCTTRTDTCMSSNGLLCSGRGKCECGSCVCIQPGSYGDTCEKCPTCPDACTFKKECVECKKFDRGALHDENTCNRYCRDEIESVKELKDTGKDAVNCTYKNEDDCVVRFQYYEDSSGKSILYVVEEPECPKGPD
Chain of Recombinant human integrin α8β1 (P53708 39-1012): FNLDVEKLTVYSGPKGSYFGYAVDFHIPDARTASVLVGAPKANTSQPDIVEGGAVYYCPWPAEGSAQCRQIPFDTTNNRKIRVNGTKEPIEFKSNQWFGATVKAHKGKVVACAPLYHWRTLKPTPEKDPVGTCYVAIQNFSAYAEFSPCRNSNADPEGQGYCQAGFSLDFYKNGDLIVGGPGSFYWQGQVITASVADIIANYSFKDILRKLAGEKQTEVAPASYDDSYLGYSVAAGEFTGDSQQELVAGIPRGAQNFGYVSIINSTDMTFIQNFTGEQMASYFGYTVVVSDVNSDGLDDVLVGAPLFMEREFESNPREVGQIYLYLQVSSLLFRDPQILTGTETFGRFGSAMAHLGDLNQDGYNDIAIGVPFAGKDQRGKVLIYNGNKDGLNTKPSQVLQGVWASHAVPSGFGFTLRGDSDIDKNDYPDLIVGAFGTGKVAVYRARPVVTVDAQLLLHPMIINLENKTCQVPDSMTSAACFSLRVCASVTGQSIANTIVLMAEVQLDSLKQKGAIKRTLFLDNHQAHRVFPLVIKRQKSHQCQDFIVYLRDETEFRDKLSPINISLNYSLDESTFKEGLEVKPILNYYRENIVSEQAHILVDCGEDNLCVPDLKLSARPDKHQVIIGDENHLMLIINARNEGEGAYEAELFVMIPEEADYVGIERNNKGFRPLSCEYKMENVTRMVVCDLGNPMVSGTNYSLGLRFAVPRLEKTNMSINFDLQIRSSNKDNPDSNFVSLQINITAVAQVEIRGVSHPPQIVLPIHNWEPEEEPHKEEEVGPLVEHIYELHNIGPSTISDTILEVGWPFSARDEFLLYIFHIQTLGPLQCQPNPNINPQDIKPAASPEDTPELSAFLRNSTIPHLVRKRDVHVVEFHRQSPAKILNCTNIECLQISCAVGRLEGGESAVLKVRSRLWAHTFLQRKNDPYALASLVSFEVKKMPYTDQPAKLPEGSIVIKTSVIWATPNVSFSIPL
Chain of Recombinant human integrin α8β1 (P05556 21-728): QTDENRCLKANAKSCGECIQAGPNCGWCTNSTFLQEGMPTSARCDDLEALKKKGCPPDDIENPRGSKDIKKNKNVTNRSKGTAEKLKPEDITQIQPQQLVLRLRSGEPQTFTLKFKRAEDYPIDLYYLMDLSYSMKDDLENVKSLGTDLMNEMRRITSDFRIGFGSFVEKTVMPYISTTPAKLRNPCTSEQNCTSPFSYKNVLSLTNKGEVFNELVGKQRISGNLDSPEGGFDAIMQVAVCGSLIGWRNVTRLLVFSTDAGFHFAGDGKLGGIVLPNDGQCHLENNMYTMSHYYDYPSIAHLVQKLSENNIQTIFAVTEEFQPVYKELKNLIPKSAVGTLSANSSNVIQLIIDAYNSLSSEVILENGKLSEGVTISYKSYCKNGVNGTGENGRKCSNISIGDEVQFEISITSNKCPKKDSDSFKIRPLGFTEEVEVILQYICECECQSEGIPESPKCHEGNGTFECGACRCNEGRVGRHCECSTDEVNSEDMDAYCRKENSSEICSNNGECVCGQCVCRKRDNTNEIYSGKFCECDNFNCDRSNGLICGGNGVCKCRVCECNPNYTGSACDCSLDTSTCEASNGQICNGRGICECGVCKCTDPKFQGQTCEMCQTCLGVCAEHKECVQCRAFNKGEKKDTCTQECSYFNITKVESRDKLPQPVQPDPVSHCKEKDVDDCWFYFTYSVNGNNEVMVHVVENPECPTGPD

As for `N=C(N)Nc1cccc(C(=O)NCC(=O)NC(CC(=O)O)c2ccccc2)c1` (stereo not drawn) [Example C5, reference compound], the IC50 in assay [1] was 383 nM; in assay [2], 17 ± 2 nM; in assay [3] it was 4 nM.

Regarding `O=C(O)C[C@H](NC(=O)CNC(=O)c1cncc(NC2=NCC(O)CN2)c1)c1cc(Br)cc(Br)c1` (stereo partly drawn) [Example 14, (3S)-3-(3,5-dibromophenyl)-3-[[2-[[5-[(5-hydroxy-1,4,5,6-tetrahydropyrimidin-2-yl)amino]pyridine-3-carbonyl]amino]acetyl]amino]propanoic acid], the IC50 came out at 0.4 nM in assay [1], 0.2 nM in assay [2] and 0.3 nM in assay [3].

With `O=C(O)CC(NC(=O)CNC(=O)c1cc(O)cc(NC2=NCC(O)CN2)c1)c1cc(Br)cc(Br)c1O` (stereo not drawn) [Example C7, reference compound], the IC50 in assay [1] came out at 26 nM; in assay [2] it was 12 nM; in assay [3], 11 nM.

Take `O=C(O)C[C@H](NC(=O)CNC(=O)c1cncc(NC2=NCC(O)CN2)c1)c1cc(Cl)cc(Br)c1` (stereo partly drawn) [Example 8, (3S)-3-(3-bromo-5-chloro-phenyl)-3-[[2-[[5-[(5-hydroxy-1,4,5,6-tetrahydropyrimidin-2-yl)amino]pyridine-3-carbonyl]amino]acetyl]amino]propanoic acid]: the IC50 stood at 0.6 nM in assay [1], 0.4 nM in assay [2] and 4 nM in assay [3].

Turning to `O=C(O)C[C@H](NC(=O)CNC(=O)c1cc(O)cc(NC2=NCC(O)CN2)c1)c1ccccc1` (stereo partly drawn) [Example C2, reference compound], the figures for the IC50 in assay [1], in assay [2] and in assay [3] were 3 nM, over 1000 nM and 3 nM, respectively.

With `O=C(O)C[C@H](NC(=O)CNC(=O)c1cc(O)cc(NC2=NCC(O)CN2)c1)c1cc(Cl)cc(Br)c1O` (stereo partly drawn) [Example C1, reference compound], the IC50 in assay [1] turned out to be 8 ± 2 nM; in assay [2], 2 ± 1 nM; in assay [3], 5 ± 2 nM.

Turning to `O=C(O)C[C@H](NC(=O)CNC(=O)c1cc(O)cc(NC2=NCC(O)CN2)c1)c1cc(Cl)cc(Br)c1` (stereo partly drawn) [Example 6, (3S)-3-[3-bromo-5-chloro-phenyl)-3-(2-(3-hydroxy-5-((5-hydroxy-1,4,5,6-tetrahydropyrimidin-2-yl)amino)benzamido)acetamido]propanoic acid], the IC50 stood at 0.5 nM in assay [1], 0.4 nM in assay [2] and 1 nM in assay [3].

Turning to `Cc1cc(Br)cc([C@H](CC(=O)O)NC(=O)CNC(=O)c2cc(O)cc(NC3=NCC(O)CN3)c2)c1` (stereo partly drawn) [Example 11, (3S)-3-[3-bromo-5-methyl-phenyl)-3-(2-(3-hydroxy-5-((5-hydroxy-1,4,5,6-tetrahydropyrimidin-2-yl)amino)benzamido)acetamido)propanoic acid], the IC50 in assay [1] is 0.7 nM; in assay [2], 0.5 nM; in assay [3] it was 2 nM.

Regarding `O=C(O)C[C@H](NC(=O)CNC(=O)c1cc(O)cc(NC2=NCC(O)CN2)c1)c1cc(C(F)(F)F)cc(C(F)(F)F)c1` (stereo partly drawn) [Example 10, (3S)-3-[3,5-bis(trifluoromethyl)phenyl)-3-(2-(3-hydroxy-5-((5-hydroxy-1,4,5,6-tetrahydropyrimidin-2-yl)amino)benzamido)acetamido]propanoic acid], the IC50 is 1.1 nM in assay [1], 0.3 ± 0.1 nM in assay [2] and 4 nM in assay [3].

With `Cc1cc(Cl)cc([C@H](CC(=O)O)NC(=O)CNC(=O)c2cc(O)cc(NC3=NCC(O)CN3)c2)c1` (stereo partly drawn) [Example 12, (3S)-3-[3-chloro-5-methyl-phenyl)-3-(2-(3-hydroxy-5-((5-hydroxy-1,4,5,6-tetrahydropyrimidin-2-yl)amino)benzamido)acetamido)propanoic acid], the figures for the IC50 in assay [1], in assay [2] and in assay [3] were 0.8 nM, 0.6 nM and 4 nM, respectively.

Consider `O=C(O)CC(NC(=O)CNC(=O)c1cc(O)cc(NC2=NCC(O)CN2)c1)c1cc(Cl)cc(Cl)c1O` (stereo not drawn) [Example C3, reference compound], for which the IC50 in assay [1] amounted to 14 nM; in assay [2], 1 nM; in assay [3] it was 2 nM.

As to `Cc1ccc(O)c(C(CC(=O)O)NC(=O)CNC(=O)c2cc(O)cc(NC3=NCC(O)CN3)c2)c1` (stereo not drawn) [Example C6, reference compound], the IC50 in assay [1] amounted to 17 nM; in assay [2] it was 1 nM; in assay [3] it was 6 nM.

Regarding `O=C(O)C[C@H](NC(=O)CNC(=O)c1cncc(NC2=NCC(O)CN2)c1)c1cc(Cl)cc(C(F)(F)F)c1` (stereo partly drawn) [Example 7], the values for the IC50 in assay [1], in assay [2] and in assay [3] were 0.6 nM, 0.3 nM and 3 nM, respectively.

For the origin of these results see patent US10035778B2, “Meta-azacyclic amino benzoic acid derivatives as pan integrin antagonists” (Saint Louis University, priority 2015, dated 2018).
